Laboratory results reported in patent publication US20230226214A1, “BIFUNCTIONAL BRIDGING COMPOSITIONS FOR VIRAL TRANSDUCTION” (Lycia Therapeutics, Inc., priority 2020, published 2023).

How the values were obtained:
[1] = target: T1, recombinant human CI-M6PR protein (Homo sapiens, UniProt P11717); experiment: M6PR binding ELISA of matuzumab conjugates; conditions: antibody conjugates of the ligand-linkers
T1 construct: purchased R&D 6418-GR-050
Experimental: Binding affinity of matuzumab conjugated to ligand-linkers for M6PR was determined by ELISA using the following protocol: Nunc black solid bottom MaxiSorp plates were allowed to incubate overnight at 4° C. coated with 1 μg/mL of recombinant human CI-M6PR protein (R&D, 6418-GR-050) in 50 μL PBS. The next day, coating was decanted and plates were washed 3× with PBS. Wells were blocked with 350 μL of 3% BSA-PBS for 1 hour at room temperature. […] 50 μL of diluted conjugates were added to the plate and allowed to incubate at room temperature for 2 hours. After incubation, solutions in plate were decanted and washed with 350 μL of 0.05% PBS-Tween20 three times, drying the plate each wash on a clean paper towel. 50 μL of peroxidase AffiniPure Mouse Anti-Human IgG (Jackson Immuno, 209-035-088) diluted in 3% BSA-PBS to 0.2 μg/mL was added to the plate and allowed to incubate for 1 hour at room temperature in the dark. After incubation, solutions in plate were decanted and washed with 350 μL of 0.05% PBS-Tween20 3 times, drying the plate each wash on a clean paper towel. […] 50 μL of QuantaBlu solution was added to wells and allowed to incubate for 5-10 minutes at room temperature. After incubation, plates were read on a Perkin Elmer EnVision using photometric 340 and Umbelliferone 460 filter sets for excitation and emission, respectively. Data analysis and non-linear curve-fitting was performed using GraphPad Prism.

[2] = mice, intravenous, 10 μg/mouse; serum rIgG1 at 0.5-24 hours; compared with Compound I-7 conjugate
Experimental: A pharmacokinetic analysis of the rIgG1 (anti-IgG2a) antibody conjugates described in the previous example was performed in mice. In particular, C57B6 mice were intravenously administered each rIgG1 antibody conjugate at 10 μg/mouse (5 mice per group). Blood was collected at 0.5, 1, 2, 6, and 24 hours and serum rIgG1 was analyzed using an ELISA kit (Abcam) according to the manufacturer's instructions. Samples were run across 3 different plates with unconjugated rIgG1 controls (UNLB-anti-IgG2a rIgG1) included on all 3 plates.

human Jurkat cells = experiment: Uptake of IgG2a-Alexa488 mediated by anti-IgG2a conjugates (flow cytometry); format: cell-based; conditions: 1 h and 24 h
Experimental: The anti-IgG2a conjugates were bound to IgG2a-Alexa488, as follows: equal molar ratios of anti-IgG2a and IgG2a-Alexa488 were added in tissue culture media for 30 minutes at room temperature. The resulting anti-IgG2a:IgG2a antibody-Alexa488 compositions were added to human Jurkat cells (100 k cells/50 ul per well, n=2), and Alexa488 fluorescence levels were measured (via Alexa488 measurement) at 1 hour and 24 hours by flow cytometry. Because Alexa488 accumulates in cells, this presents a way to measure total intracellular uptake by cells over time.

human HepG2 cells = experiment: Transduction efficiency of AAV8 particle conjugates in HepG2 cells (GFP); format: cell-based; conditions: increasing MOI, 72 hrs, compared with unconjugated AAV8
Experimental: Transduction efficiency of AAV8 particle conjugates was also measured in human HepG2 cells and compared to that of an unconjugated AAV-CMV-GFP control (“AAV8 GFP-UNLB”). HepG2 cells were transduced with increasing multiplicity of infection (MOI) of unconjugated AAV8, AAV8 conjugated to Compound I-7 (ITX-16590), and AAV conjugated to Compound I-124 (ITX-22701) or different molar rations of AAV8 conjugated to Compound I-124 (ITX-22701).
In performing the experiments described above, 2V6·11 cells (Elab Science) in DMEM (Gibco) with 10% fetal bovine serum (Gibco) were seeded onto 96-well plates (Nunc) at a concentration of 20 k cells/well 24 hours prior to infection. Jurkat cells (ATCC) in RPMI (Gibco) with 10% fetal bovine serum (Gibco) were seeded onto 96-well plates (Nunc) 1 h prior to transduction. HepG2 cells (ATCC) in EMEM (Gibco) with 10% fetal bovine serum (Gibco) were seeded onto 96-well plates (Nunc) 24 hours prior to infection. […]
After the incubation period, the medium was aspirated, the cells were washed with PBS and analyzed for GFP expression via flow cytometry on BioRad ZES Cell Analyzer (BioRad) or analyzed for luciferase levels using a luciferase assay kit (Promega) following manufacture's protocol and using a luminometer.

T1 sequence (P11717 41-1365 limits assumed): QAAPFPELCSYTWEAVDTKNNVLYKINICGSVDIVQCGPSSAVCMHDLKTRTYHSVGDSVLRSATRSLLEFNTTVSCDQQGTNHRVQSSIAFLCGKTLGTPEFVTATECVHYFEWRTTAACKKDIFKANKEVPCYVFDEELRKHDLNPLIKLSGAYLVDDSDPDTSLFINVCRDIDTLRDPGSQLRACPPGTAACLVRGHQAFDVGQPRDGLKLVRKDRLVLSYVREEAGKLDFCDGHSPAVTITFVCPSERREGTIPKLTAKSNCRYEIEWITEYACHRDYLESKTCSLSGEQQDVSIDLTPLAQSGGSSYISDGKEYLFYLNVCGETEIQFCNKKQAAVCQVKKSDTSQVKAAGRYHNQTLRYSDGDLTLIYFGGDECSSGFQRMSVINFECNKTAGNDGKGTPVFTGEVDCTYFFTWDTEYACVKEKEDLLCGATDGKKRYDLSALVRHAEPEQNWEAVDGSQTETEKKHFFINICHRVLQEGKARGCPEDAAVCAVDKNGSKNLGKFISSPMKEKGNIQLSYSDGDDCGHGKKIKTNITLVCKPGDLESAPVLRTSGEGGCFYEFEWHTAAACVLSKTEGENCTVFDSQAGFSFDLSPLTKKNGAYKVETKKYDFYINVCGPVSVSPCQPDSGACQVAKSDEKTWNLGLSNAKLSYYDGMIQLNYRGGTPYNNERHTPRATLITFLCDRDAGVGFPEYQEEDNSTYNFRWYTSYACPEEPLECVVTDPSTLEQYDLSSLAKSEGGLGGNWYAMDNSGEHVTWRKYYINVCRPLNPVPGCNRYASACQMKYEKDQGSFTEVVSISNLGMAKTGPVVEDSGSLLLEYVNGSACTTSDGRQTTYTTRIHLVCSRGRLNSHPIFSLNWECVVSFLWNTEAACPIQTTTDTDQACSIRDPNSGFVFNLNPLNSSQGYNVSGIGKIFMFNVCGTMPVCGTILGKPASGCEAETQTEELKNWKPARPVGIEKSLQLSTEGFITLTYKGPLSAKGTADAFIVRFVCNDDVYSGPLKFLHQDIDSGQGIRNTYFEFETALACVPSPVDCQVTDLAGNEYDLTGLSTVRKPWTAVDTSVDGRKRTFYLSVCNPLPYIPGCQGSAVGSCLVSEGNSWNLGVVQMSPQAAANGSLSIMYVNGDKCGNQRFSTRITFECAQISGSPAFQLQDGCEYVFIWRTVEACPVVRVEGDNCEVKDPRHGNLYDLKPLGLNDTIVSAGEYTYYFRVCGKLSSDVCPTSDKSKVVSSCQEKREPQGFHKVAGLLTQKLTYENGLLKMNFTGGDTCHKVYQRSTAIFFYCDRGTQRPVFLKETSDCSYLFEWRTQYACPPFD

Molecule | binding affinity for M6PR [1] | half-life in serum [2] | intracellular uptake (Alexa488 fluorescence) (human Jurkat cells) | transduction efficiency (percentage of GFP positive cells, MFI) (human HepG2 cells)
O=C(CCN1C(=O)C=CC1=O)NCCOCCOCCOCCn1cc(CCO[C@H]2O[C@H](CCP(=O)(O)O)[C@@H](O)[C@H](O)[C@@H]2O)nn1 [Compound I-10] | weaker binding affinity to M6PR compared to Compound I-7 | longer half-life | – | –
O=C(CCOCCOCCOCCN(CCOCCOCCOCCn1cc(CCO[C@H]2O[C@H](CCP(=O)(O)O)[C@@H](O)[C@H](O)[C@@H]2O)nn1)CCOCCOCCOCCn1cc(CCO[C@H]2O[C@H](CCP(=O)(O)O)[C@@H](O)[C@H](O)[C@@H]2O)nn1)Oc1c(F)c(F)c(F)c(F)c1F [Compound I-12] | weaker binding affinity to M6PR compared to Compound I-7 | longer half-life | sufficiently robust uptake | –
O=C(CCOCCn1cc(CCO[C@H]2O[C@H](CCP(=O)(O)O)[C@@H](O)[C@H](O)[C@@H]2O)nn1)Oc1c(F)c(F)c(F)c(F)c1F [Compound I-11] | weaker binding affinity to M6PR compared to Compound I-7 | longer half-life | sufficiently robust uptake | –
O=C(CCOCCOCCOCCOCCOCCOCCOCCOCCn1cc(CCO[C@H]2O[C@H](CCP(=O)(O)O)[C@@H](O)[C@H](O)[C@@H]2O)nn1)Oc1c(F)c(F)c(F)c(F)c1F [Compound I-9] | – | – | sufficiently robust uptake | –
CC(=O)N[C@H]1[C@H](OCCCCC(=O)NCCCNC(=O)CCOCC(COCCC(=O)NCCCNC(=O)CCCCO[C@@H]2O[C@H](CO)[C@H](O)[C@H](O)[C@H]2NC(C)=O)(COCCC(=O)NCCCNC(=O)CCCCO[C@@H]2O[C@H](CO)[C@H](O)[C@H](O)[C@H]2NC(C)=O)NC(=O)CCCCCCCCCCC(=O)Oc2c(F)c(F)c(F)c(F)c2F)O[C@H](CO)[C@H](O)[C@@H]1O [Compound I-124] | – | – | – | greater transduction efficiency than unconjugated AAV8
Compound I-11d4: "matuzumab-Compound I-11 (d4)" conjugate tested for M6PR binding (conjugate, left off: a dimerising Fc or GST) heavy: QVQLVQSGAEVKKPGASVKVSCKASGYTFTSHWMHWVRQAPGQGLEWIGEFNPSNGRTNYNEKFKSKATMTVDTSTNTAYMELSSLRSEDTAVYYCASRDYDYAGRYFDYWGQGTLVTVSSASTKGPSVFPLAPSSKSTSGGTAALGCLVKDYFPEPVTVSWNSGALTSGVHTFPAVLQSSGLYSLSSVVTVPSSSLGTQTYICNVNHKPSNTKVDKKVEPKS light: DIQMTQSPSSLSASVGDRVTITCSASSSVTYMYWYQQKPGKAPKLLIYDTSNLASGVPSRFSGSGSGTDYTFTISSLQPEDIATYYCQQWSSHIFTFGQGTKVEIKRTVAAPSVFIFPPSDEQLKSGTASVVCLLNNFYPREAKVQWKVDNALQSGNSQESVTEQDSKDSTYSLSSTLTLSKADYEKHKVYACEVTHQGLSSPVTKSFNRGE | lowest | – | – | –
